Data taken from article PMC4511920 (Molecular cancer research : MCR, 2015).

Key:
DYRK1B = conditions: Target DYRK1B; NCGC compounds; cited from earlier work
[1] = target: DYRK and CLK family kinases; conditions: cited from earlier work
[2] = test system: endogenous NKX3.1 in LNCaP cells; assay: Endogenous NKX3.1 half-life in LNCaP cells exposed to cycloheximide, immunoblot; type: cell-based, human

Row | Compound | IC50 (DYRK1B) [µM] | Kinase specificity (in words) [1] | Effect on NKX3.1 half-life / degradation (in words) [2]
1 | Cc1nc(CNc2ncnc3ccc(-c4ccc5c(c4)OCO5)cc23)cs1 [NCGC00185963] | 1.51 | – | –
2 | c1coc(CCNc2ncnc3ccc(-c4ccc5c(c4)OCO5)cc23)c1 [NCGC00185976] | 0.103 | – | –
3 | CN(Cc1cccs1)c1ncnc2ccc(-c3ccc4c(c3)OCO4)cc12 [NCGC00185984] | 0.072 | no specificity for CLK kinases | –
4 | Cc1nc(CN(C)c2ncnc3ccc(-c4ccc5c(c4)OCO5)cc23)cs1 [NCGC00185981] | 0.025 | specificity against both DYRK and CLK family kinases | most active compound
